According to paper PMC7114444 (Virus Research, 2014):
pEC50: −log10 of the molar value. Entries after “also recorded” stand apart in the source; their conditions may differ.

Experiments:
NFAT3-GFP = assay: NFAT-GFP nuclear translocation assay; type: cell-based; conditions: HeLa cells, 40 nM drug, 2 μM ionomycin
HCoV-NL63 = HCoV-NL63 replication in Caco-2 cells, qPCR of genome equivalents; type: cell-based; conditions: Human coronavirus NL63, Caco-2, 48 h, read-out: Inhibition of HCoV-NL63 in CaCo-2 EC50
HCoV-NL63 N-protein = assay: Western blot of N protein expression in HCoV-NL63-infected CaCo-2 cells; type: cell-based; conditions: for N-protein expression at 20 μM: 48 h, 20 μM inhibitor
lymphocyte = lymphocyte proliferation assays, ref Sadeg et al., 1993a, 1993b; cited from earlier work

Row | SMILES | NFAT-GFP nuclear translocation (NFAT3-GFP) | pEC50 (HCoV-NL63) | N-protein expression at 20 μM (HCoV-NL63 N-protein) | concentration above which N protein is not detectable any more (HCoV-NL63 N-protein; discussion statement) | concentration at which N protein decreased (HCoV-NL63 N-protein; discussion statement) [µM] | immunosuppressive activity relative to CsA activity (lymphocyte)
1 | C/C=C/C[C@@H](C)[C@@H](O)[C@H]1C(=O)N[C@@H](CC)C(=O)N(C)[C@H](C)C(=O)N(CC)[C@@H](C(C)C)C(=O)N[C@@H](C(C)C)C(=O)N(C)[C@@H](CC(C)C)C(=O)N[C@@H](C)C(=O)N[C@H](C)C(=O)N(C)[C@@H](CC(C)C)C(=O)N(C)[C@@H](CC(C)C)C(=O)N(C)[C@@H](C(C)C)C(=O)N1C [ALV, Alisporivir] | allow NFAT-GFP translocation to the nucleus; also recorded: NFAT migrated to the nucleus | 6.10 | not detectable any more | above 5 μM | 1.25 | –
2 | C/C=C/C[C@@H](C)[C@@H](O)[C@H]1C(=O)N[C@@H](C(C)C)C(=O)N(C)CC(=O)N(C)[C@@H](CC(C)C)C(=O)N[C@@H](C(C)C)C(=O)N(C)[C@@H](CC(C)C)C(=O)N[C@@H](C)C(=O)N[C@H](C)C(=O)N(C)[C@@H](CC(C)C)C(=O)N(C)[C@@H](CC(C)C)C(=O)N(C)[C@@H](C(C)C)C(=O)N1C [CsD] | NFAT is not transferred to the nucleus; also recorded: showed the same behavior as CsA; also recorded: remained in the cytoplasm | – | – | – | – | about 10%
3 | C=CC[C@@H]1/C=C(\C)C[C@H](C)C[C@H](OC)[C@H]2O[C@@](O)(C(=O)C(=O)N3CCCC[C@H]3C(=O)O[C@H](/C(C)=C/[C@@H]3CC[C@@H](O)[C@H](OC)C3)[C@H](C)[C@@H](O)CC1=O)[C@H](C)C[C@@H]2OC [FK506] | NFAT is not transferred to the nucleus; also recorded: remained in the cytoplasm | 5.18 | – | – | – | –
4 | C/C=C/C[C@@H](C)[C@@H](O)[C@H]1C(=O)N[C@@H](CC)C(=O)N(C)CC(=O)N(C)[C@@H]([C@@H](C)CC)C(=O)N[C@@H](C(C)C)C(=O)N(C)[C@@H](CC(C)C)C(=O)N[C@@H](C)C(=O)N[C@H](C)C(=O)N(C)[C@@H](CC(C)C)C(=O)N(C)[C@@H](CC(C)C)C(=O)N(C)[C@@H](C(C)C)C(=O)N1C [NIM811] | allow NFAT-GFP translocation to the nucleus; also recorded: NFAT migrated to the nucleus | 6.10 | not detectable any more | above 5 μM | – | –
